Data reported in patent US20240300948A1, “Heterocyclic Compounds As Kinase Inhibitors” (Incyte Corporation, priority 2023, published 2024).
pIC50: −log10 of the molar value.

Columns and labels:
[1] = biological target: T1, catalytic domain (JH1, amino acids 826-1132) of human JAK2 (Homo sapiens, UniProt O60674); assay: JAK2 LanthaScreen JH1 binding assay; details: 50 nM tracer, 2 hours at 25° C., read-out: JH1 BIND IC50
T1 construct: catalytic domain (JH1, amino acids 826-1132) of human JAK2; FLAG (N); purchased Carna Biosciences 08-445-20N; host or cells: baculovirus expression system
T1 sequence (O60674 826-1132): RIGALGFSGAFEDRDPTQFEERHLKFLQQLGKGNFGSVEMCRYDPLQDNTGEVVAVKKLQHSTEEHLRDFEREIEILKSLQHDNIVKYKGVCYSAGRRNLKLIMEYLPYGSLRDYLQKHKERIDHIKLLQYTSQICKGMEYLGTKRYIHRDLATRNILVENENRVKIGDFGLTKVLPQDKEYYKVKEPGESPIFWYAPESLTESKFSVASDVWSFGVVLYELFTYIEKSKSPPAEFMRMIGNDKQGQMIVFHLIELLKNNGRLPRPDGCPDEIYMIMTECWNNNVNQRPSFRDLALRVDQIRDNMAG
Protocol: Example A. JAK2 LanthaScreen […] Binding Assay
JAK2 JH1 binding assay utilizes catalytic domain (JH1, amino acids 826-1132) of human JAK2 expressed as N-terminal FLAG-tagged, biotinylated protein in a baculovirus expression system (Carna Biosciences, Product #08-445-20N). The assay was conducted in black 384-well polystyrene plates in a final reaction volume of 20 μL. JAK2 JH1 (1.5 nM) was incubated with compounds (100 nL serially diluted in DMSO) in the presence of 50 nM fluorescent JAK2-JH1 tracer and 0.5 nM Streptavidin-Tb cryptate (Cisbio Part #610SATLB) in assay buffer (50 mM Tris, pH=7.5, 10 mM MgCl2, 0.01% Brij-35, 0.1% BSA, 1 mM EGTA, 5% Glycerol and 5 mM DTT). Non-specific binding was accessed in the presence of 2 mM ATP. After incubation for 2 hours at 25° C., LanthaScreen signals were read on a PHERAstar FS plate reader (BMG LABTECH). Data was analyzed with IDBS XLfit and GraphPad Prism 5.0 software using a four parameter dose response curve to determine IC50 for each compound.

[2] = biological target: T2, pseudo-kinase domain (JH2, amino-acids 536-812 with 3 surface mutations W659A, W777A, F794H) of human Wild Type JAK2 (Homo sapiens, UniProt O60674, F794H/W659A/W777A); assay: JAK2 LanthaScreen JH2-WT binding assay; details: 50 nM tracer, 1 hour at 25° C., read-out: JH2 BIND WT IC50
T2 construct: pseudo-kinase domain (JH2, amino-acids 536-812 with 3 surface mutations W659A, W777A, F794H); His (C); Avi (biotinylated) (C); purchased BPS Bioscience 79463; host or cells: baculovirus expression system
T2 sequence (O60674 536-812 W659A/W777A/F794H): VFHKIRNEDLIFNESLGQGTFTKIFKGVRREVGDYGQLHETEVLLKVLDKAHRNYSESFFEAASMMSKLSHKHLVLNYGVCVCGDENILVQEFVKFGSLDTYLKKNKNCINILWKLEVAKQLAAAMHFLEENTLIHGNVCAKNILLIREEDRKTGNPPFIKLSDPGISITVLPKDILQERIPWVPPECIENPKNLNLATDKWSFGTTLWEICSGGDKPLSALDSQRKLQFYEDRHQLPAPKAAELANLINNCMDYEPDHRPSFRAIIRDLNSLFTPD
Protocol: Example B. JAK2 LanthaScreen JH2-WT Binding Assay
(§1) JAK2 JH2-WT binding assay utilizes pseudo-kinase domain (JH2, amino-acids 536-812 with 3 surface mutations W659A, W777A, F794H) of human Wild Type JAK2 expressed as C-terminal His-Avi-tagged, biotinylated protein in a baculovirus expression system (BPS Bioscience, Catalog #79463). The assay was conducted in black 384-well polystyrene plates in a final reaction volume of 20 μL. JAK2 JH2-WT (0.145 nM) was incubated with compounds (100 nL serially diluted in DMSO) in the presence of 50 nM Fluorescent JAK2-JH2 Tracer (MedChem Express Catalog #HY-102055) and 0.25 nM Streptavidin-Tb cryptate (Cisbio Part #610SATLB) in assay buffer (50 mM Tris, pH=7.5, 10 mM MgCl2, 0.01% Brij-35, 0.1% BSA, 1 mM EGTA, 5% Glycerol and 5 mM DTT). Non-specific binding was accessed in the presence of 2 mM ATP. After incubation for 1 hour at 25° C., LanthaScreen signals were read on a PHERAstar FS plate reader (BMG LABTECH). Data was analyzed with IDBS XLfit and GraphPad Prism 5.0 software using a four parameter dose response curve to determine IC50 for each compound.

[3] = biological target: T3, pseudo-kinase domain (JH2, amino-acids 536-812 with 3 surface mutations W659A, W777A, F794H) of human V617F mutant JAK2 (Homo sapiens, UniProt O60674, F794H/V617F/W659A/W777A); assay: JAK2 LanthaScreen JH2-V617F binding assay; details: 50 nM tracer, 1 hour at 25° C., read-out: JH2 BIND V617F IC50
T3 construct: pseudo-kinase domain (JH2, amino-acids 536-812 with 3 surface mutations W659A, W777A, F794H); His (C); Avi (biotinylated) (C); purchased BPS Bioscience 79498; host or cells: baculovirus expression system
T3 sequence (O60674 536-812 V617F/W659A/W777A/F794H): as the sequence (O60674 536-812 W659A/W777A/F794H) above, with V82F counted along it
Protocol: Example C. JAK2 LanthaScreen JH2-V617F Binding Assay
as §1, with “JH2-V617F” for “JH2-WT”, “V617F mutant” for “Wild Type”, “#79498).” for “#79463).”, “JH2-V617F (0.26” for “JH2-WT (0.145”

SMILES | pIC50 [1] | pIC50 [2] | pIC50 [3]
COC(=O)N[C@@H]1CC[C@@H](N2C(=O)NCc3cnc4[nH]c(-c5cnn(C)c5)c(-c5ccc6c(cnn6CCF)c5)c4c32)C1 [Example 25, Methyl ((1R,3R)-3-(9-(1-(2-fluoroethyl)-1H-indazol-5-yl)-8-(1-methyl-1H-pyrazol-4-yl)-2-oxo-2,3,4,7-tetrahydro-1H-pyrrolo[3′,2′:5,6]pyrido [4,3-d]pyrimidin-1-yl)cyclopentyl) carbamate] | 6.30 to 7.00 | ≥ 8.00 | 7.00 to 8.00
COC(=O)N[C@@H]1CC[C@@H](N2C(=O)NCc3cnc4[nH]c(-c5cnn(C)c5)c(-c5ccc6c(c5)COC6(C)C)c4c32)C1 [Example 26, Methyl ((1R,3R)-3-(9-(1,1-dimethyl-1,3-dihydroisobenzof uran-5-yl)-8-(1-methyl-1H-pyrazol-4-yl)-2-oxo-2,3,4,7-tetrahydro-1H-pyrrolo[3′,2′:5,6]pyrido[4,3-d]pyrimidin-1-yl)cyclopentyl)ca rbamate] | 6.00 to 6.30 | ≥ 8.00 | ≥ 8.00
COC(=O)N[C@@H]1CC[C@@H](N2C(=O)NCc3cnc4[nH]c(-c5cnn(C)c5)c(-c5ccc(OC)cc5)c4c32)C1 [Example 28, Methyl ((1R,3R)-3-(9-(4-methoxyphenyl)-8-(1-methyl-1H-pyrazol-4-yl)-2-oxo-2,3,4,7-tetrahydro-1H-pyrrolo[3′,2′:5,6]pyrido[4,3-d]pyrimidin-1-yl)cyclopentyl)carbamate] | < 6.00 | 7.00 to 8.00 | 7.00 to 8.00
COC(=O)N[C@@H]1CC[C@@H](N2C(=O)NCc3cnc4[nH]c(-c5cnn(C)c5)c(-c5ccc6c(cnn6C)c5)c4c32)C1 [Example 29, Methyl ((1R,3R)-3-(9-(1-methyl-1H-indazol-5-yl)-8-(1-methyl-1H-pyrazol-4-yl)-2-oxo-2,3,4,7-tetrahydro-1H-pyrrolo[3′,2′:5,6]pyrido[4,3-d]pyrimidin-1-yl)cyclopentyl) carbamate] | < 6.00 | ≥ 8.00 | 7.00 to 8.00
COC(=O)N[C@@H]1CC[C@@H](N2C(=O)NCc3cnc4[nH]c(-c5cnn(C)c5)c(-c5ccc6c(cnn6C(C)C)c5)c4c32)C1 [Example 30, Methyl ((1R,3R)-3-(9-(1-isopropyl-1H-indazol-5-yl)-8-(1-methyl-1H-pyrazol-4-yl)-2-oxo-2,3,4,7-tetrahydro-1H-pyrrolo[3′,2′:5,6]pyrido[4,3-d]pyrimidin-1-yl)cyclopentyl) carbamate] | < 6.00 | ≥ 8.00 | ≥ 8.00
COC(=O)N[C@@H]1CC[C@@H](N2C(=O)NCc3cnc4[nH]c(-c5cnn(C)c5)c(-c5cccc(F)c5)c4c32)C1 [Example 31, Methyl ((1R,3R)-3-(9-(3-fluorophenyl)-8-(1-methyl-1H-pyrazol-4-yl)-2-oxo-2,3,4,7-tetrahydro-1H-pyrrolo[3′,2′:5,6]pyrido[4,3-d]pyrimidin-1-yl)cyclopentyl) carbamate] | < 6.00 | 7.00 to 8.00 | 6.30 to 7.00
COCc1ccc(-c2c(-c3cnn(C)c3)[nH]c3ncc4c(c23)N([C@@H]2CC[C@@H](NC(=O)OC)C2)C(=O)NC4)cc1 [Example 32, Methyl ((1R,3R)-3-(9-(4-(methoxymethyl)phenyl)-8-(1-methyl-1H-pyrazol-4-yl)-2-oxo-2,3,4,7-tetrahydro-1H-pyrrolo[3′,2′:5,6]pyrido[4,3-d]pyrimidin-1-yl)cyclopentyl) carbamate] | 6.00 to 6.30 | 7.00 to 8.00 | 7.00 to 8.00
COC(=O)N[C@H]1C[C@H](N2C(=O)NCc3cnc4[nH]c(-c5ccc(CN6CCOCC6)cc5)c(-c5ccc6c(cnn6C(C)C)c5)c4c32)C1 [Example 33, Methyl ((1r,3r)-3-(9-(1-isopropyl-1H-indazol-5-yl)-8-(4-(morpholinomethyl)phenyl)-2-oxo-2,3,4,7-tetrahydro-1H-pyrrolo[3′,2′:5,6]pyrido[4,3-d]pyrimidin-1-yl)cyclobutyl)carbamate] | < 6.00 | ≥ 8.00 | ≥ 8.00
COC(=O)N[C@H]1C[C@H](N2C(=O)NCc3cnc4[nH]c(C5=CCN(C)CC5)c(-c5ccc6c(cnn6C(C)C)c5)c4c32)C1 [Example 34, Methyl ((1r,3r)-3-(9-(1-isopropyl-1H-indazol-5-yl)-8-(1-methyl-1,2,3,6-tetra hydropyridin-4-yl)-2-oxo-2,3,4,7-tetrahydro-1H-pyrrolo[3′,2′:5,6]pyrido[4,3-d]pyrimidin-1-yl)cyclobutyl) carbamate] | < 6.00 | 7.00 to 8.00 | 7.00 to 8.00
COC(=O)N[C@H]1C[C@H](N2C(=O)NCc3cnc4[nH]c(-c5cc(C)nc(C)c5)c(-c5ccc6c(cnn6C(C)C)c5)c4c32)C1 [Example 35, Methyl ((1r,3r)-3-(8-(2,6-dimethylpyridin-4-yl)-9-(1-isopropyl-1H-indazol-5-yl)-2-oxo-2,3,4,7-tetrahydro-1H-pyrrolo[3′,2′:5,6]pyrido[4,3-d]pyrimidin-1-yl)cyclobutyl) carbamate] | < 6.00 | 7.00 to 8.00 | 7.00 to 8.00
COC(=O)N[C@H]1C[C@H](N2C(=O)NCc3cnc4[nH]c(C5CC5)c(-c5ccc6c(cnn6C(C)C)c5)c4c32)C1 [Example 36, Methyl ((1r,3r)-3-(8-cyclopropyl-9-(1-isopropyl-1H-indazol-5-yl)-2-oxo-2,3,4,7-tetrahydro-1H-pyrrolo[3′,2′:5,6]pyrido [4,3-d]pyrimidin-1-yl)cyclobutyl) carbamate] | < 6.00 | 7.00 to 8.00 | 7.00 to 8.00
COC(=O)N[C@@H]1CC[C@@H](n2c(=O)ncc3cnc4[nH]c(-c5cnn(C)c5)c(-c5ccc6c(cnn6C)c5)c4c32)C1 [Example 37, Methyl ((1R,3R)-3-(9-(1-methyl-1H-indazol-5-yl)-8-(1-methyl-1H-pyrazol-4-yl)-2-oxo-2,7-dihydro-1H-pyrrolo[3′,2′:5,6]pyrido[4,3-d]pyrimidin-1-yl)cyclopentyl)carbamate] | < 6.00 | 6.30 to 7.00 | 6.30 to 7.00
COC(=O)N[C@@H]1CC[C@@H](n2c(=O)[nH]c(=O)c3cnc4[nH]c(-c5cnn(C)c5)c(-c5ccc6c(cnn6C(C)C)c5)c4c32)C1 [Example 39, Methyl ((1R,3R)-3-(9-(1-isopropyl-1H-indazol-5-yl)-8-(1-methyl-1H-pyrazol-4-yl)-2,4-dioxo-2,3,4,7-tetrahydro-1H-pyrrolo[3′,2′:5,6]pyrido[4,3-d]pyrimidin-1-yl)cyclopentyl)carbamate] | < 6.00 | 7.00 to 8.00 | 7.00 to 8.00
